Assay results as given in patent US20090298820A1, “3-SUBSTITUTED-1H-PYRROLO[2,3-B]PYRIDINE AND 3-SUBSTITUTED-1H-PYRROLO[3,2-B]PYRIDINE COMPOUNDS, THEIR USE AS MTOR KINASE AND PI3 KINASE INHIBITORS, AND THEIR SYNTHESES” (Wyeth, priority 2008, published 2009).

Key:
Type in all cases: biochemical
mTOR = mTOR (Homo sapiens, UniProt P42345); assay: mTOR enzyme assay (DELFIA format, His6-S6K substrate); details: read-out: mTOR Kinase Median IC50
PI3Kα = PI3Kα (Homo sapiens, UniProt P42336); assay: PI3K-alpha fluorescence polarization assay; details: read-out: PI3Kα Median IC50
PI3Kγ = PI3Kγ (Homo sapiens, UniProt P48736); assay: PI3K-gamma fluorescence polarization assay; details: read-out: PI3Kγ Median IC50
Sequence of PI3Kγ (P48736 whole entry, species assumed): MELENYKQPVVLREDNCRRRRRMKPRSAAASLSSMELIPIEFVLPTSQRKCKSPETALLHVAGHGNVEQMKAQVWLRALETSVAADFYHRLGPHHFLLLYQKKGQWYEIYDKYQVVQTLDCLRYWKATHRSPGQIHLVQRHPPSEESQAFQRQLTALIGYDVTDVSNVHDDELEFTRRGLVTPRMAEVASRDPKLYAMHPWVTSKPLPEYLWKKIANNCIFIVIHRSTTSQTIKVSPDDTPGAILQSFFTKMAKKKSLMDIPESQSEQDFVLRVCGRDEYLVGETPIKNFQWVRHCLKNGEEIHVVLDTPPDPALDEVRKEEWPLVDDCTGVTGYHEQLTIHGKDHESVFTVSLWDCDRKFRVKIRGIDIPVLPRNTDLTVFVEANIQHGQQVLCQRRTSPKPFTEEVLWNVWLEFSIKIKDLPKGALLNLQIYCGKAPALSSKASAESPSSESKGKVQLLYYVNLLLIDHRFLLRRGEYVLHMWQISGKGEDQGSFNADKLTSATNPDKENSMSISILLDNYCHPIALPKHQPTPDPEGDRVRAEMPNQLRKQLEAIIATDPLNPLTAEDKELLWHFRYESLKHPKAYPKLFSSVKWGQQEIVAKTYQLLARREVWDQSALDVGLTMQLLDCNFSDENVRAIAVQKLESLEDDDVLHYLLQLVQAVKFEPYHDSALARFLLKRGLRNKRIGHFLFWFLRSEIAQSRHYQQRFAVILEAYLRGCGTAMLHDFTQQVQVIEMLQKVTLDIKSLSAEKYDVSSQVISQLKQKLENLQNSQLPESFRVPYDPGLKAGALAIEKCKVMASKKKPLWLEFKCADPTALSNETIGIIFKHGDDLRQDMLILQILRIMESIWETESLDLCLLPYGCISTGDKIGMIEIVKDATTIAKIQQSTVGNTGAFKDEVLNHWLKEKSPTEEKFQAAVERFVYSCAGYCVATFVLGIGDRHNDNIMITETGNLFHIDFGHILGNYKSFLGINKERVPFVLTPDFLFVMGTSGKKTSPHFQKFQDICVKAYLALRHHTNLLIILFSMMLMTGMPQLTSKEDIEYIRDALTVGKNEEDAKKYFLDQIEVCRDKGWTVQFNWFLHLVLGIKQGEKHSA

Sequence of PI3Kα (P42336 whole entry, species assumed): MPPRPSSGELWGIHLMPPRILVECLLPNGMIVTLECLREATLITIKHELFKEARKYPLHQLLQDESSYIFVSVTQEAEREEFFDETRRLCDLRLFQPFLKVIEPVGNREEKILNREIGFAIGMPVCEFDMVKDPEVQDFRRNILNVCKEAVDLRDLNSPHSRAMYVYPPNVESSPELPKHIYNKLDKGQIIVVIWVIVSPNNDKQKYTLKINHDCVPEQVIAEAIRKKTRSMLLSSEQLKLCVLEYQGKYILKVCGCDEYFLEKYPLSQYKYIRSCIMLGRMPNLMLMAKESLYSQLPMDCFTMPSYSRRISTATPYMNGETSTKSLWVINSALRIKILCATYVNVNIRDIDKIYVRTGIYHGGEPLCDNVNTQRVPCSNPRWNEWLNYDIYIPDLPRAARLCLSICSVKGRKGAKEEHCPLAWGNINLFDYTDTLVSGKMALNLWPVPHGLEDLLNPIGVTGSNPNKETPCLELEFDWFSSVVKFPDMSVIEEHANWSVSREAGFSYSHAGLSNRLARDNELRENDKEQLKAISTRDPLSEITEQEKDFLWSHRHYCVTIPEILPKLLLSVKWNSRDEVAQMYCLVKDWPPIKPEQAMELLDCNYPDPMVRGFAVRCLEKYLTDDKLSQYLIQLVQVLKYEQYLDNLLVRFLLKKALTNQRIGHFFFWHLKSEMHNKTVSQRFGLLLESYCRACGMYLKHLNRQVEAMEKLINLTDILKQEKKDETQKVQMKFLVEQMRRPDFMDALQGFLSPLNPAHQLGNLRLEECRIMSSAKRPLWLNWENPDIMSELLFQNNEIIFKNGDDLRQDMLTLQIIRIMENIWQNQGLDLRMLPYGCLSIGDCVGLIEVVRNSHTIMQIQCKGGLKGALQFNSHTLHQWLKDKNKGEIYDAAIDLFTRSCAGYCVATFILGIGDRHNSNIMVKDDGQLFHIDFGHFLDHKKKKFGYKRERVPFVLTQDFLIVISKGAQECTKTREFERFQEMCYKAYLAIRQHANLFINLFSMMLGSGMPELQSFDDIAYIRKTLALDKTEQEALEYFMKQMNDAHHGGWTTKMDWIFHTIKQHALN
Sequence of PI3Kα (P27986 whole entry partner, species assumed): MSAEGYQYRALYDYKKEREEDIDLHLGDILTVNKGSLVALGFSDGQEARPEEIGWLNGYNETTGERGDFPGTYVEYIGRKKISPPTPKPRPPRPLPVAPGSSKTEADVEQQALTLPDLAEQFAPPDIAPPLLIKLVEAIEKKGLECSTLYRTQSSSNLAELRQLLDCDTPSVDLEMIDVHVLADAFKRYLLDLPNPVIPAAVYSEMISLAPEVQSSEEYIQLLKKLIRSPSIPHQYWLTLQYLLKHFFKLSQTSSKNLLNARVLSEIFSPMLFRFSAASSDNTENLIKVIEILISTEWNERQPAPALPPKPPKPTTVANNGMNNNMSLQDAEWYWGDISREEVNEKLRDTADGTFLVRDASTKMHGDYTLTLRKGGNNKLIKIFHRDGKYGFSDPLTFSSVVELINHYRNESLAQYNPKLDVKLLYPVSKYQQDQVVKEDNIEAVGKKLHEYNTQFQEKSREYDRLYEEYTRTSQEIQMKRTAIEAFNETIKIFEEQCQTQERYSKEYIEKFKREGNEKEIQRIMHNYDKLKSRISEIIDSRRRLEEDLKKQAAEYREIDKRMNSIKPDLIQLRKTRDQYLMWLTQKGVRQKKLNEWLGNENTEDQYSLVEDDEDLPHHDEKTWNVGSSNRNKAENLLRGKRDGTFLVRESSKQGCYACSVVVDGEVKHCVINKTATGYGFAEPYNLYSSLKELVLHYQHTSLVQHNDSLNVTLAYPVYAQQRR

Compound	IC50 (mTOR) [nM]	IC50 (PI3Kα) [nM]	IC50 (PI3Kγ) [nM]
CN(C)S(=O)(=O)c1ccc(-c2ccnc3c2c(/C=C2\Oc4cccc(O)c4C2=O)cn3C)cc1 [Compound 180, 4-{3-[(Z)-(4-hydroxy-3-oxo-1-benzofuran-2(3H)-ylidene)methyl]-1-methyl-1H-pyrrolo[2,3-b]pyridin-4-yl}-N,N-dimethylbenzenesulfonamide]	2.9	–	–
CN(C(=O)C1CCN(c2ccnc3c2c(C=C2Oc4ccc(NC(=O)Nc5cccnc5)cc4C2=O)cn3C)CC1)[C@@H]1CCNC1 [Compound 206, N-methyl-1-[1-methyl-3-({3-oxo-5-[(pyridin-3-ylcarbamoyl)amino]-1-benzofuran-2(3H)-ylidene}methyl)-1H-pyrrolo[2,3-b]pyridin-4-yl]-N-[(3R)-pyrrolidin-3-yl]piperidine-4-carboxamide]	47	> 10000	> 10000
CN1CCN(c2ccc(NC(=O)Nc3ccc4c(c3)C(=O)/C(=C/c3cn(C)c5nccc(N6CCC(C(=O)N(C)C)CC6)c35)O4)cc2)CC1 [Compound 218, N,N-dimethyl-1-(1-methyl-3-{(Z)-[5-({[4-(4-methylpiperazin-1-yl)phenyl]carbamoyl}amino)-3-oxo-1-benzofuran-2(3H)-ylidene]methyl}-1H-pyrrolo[2,3-b]pyridin-4-yl)piperidine-4-carboxamide]	445	994	> 10000
CC1CN(C(=O)C2CCN(c3ccnc4c3c(/C=C3\Oc5ccc(NC(=O)Nc6cccnc6)cc5C3=O)cn4C)CC2)CC(C)O1 (stereo not shown) [Compound 265, 1-{(2Z)-2-[(4-{4-[(2,6-dimethylmorpholin-4-yl)carbonyl]piperidin-1-yl}-1-methyl-1H-pyrrolo[2,3-b]pyridin-3-yl)methylene]-3-oxo-2,3-dihydro-1-benzofuran-5-yl}-3-pyridin-3-ylurea]	40.5	3750	1190
Cn1cc(/C=C2\Oc3cccc(O)c3C2=O)c2c(-c3ccc(C(=O)N4CCOCC4)cc3)ccnc21 [Compound 128, (2Z)-4-hydroxy-2-({1-methyl-4-[4-(morpholin-4-ylcarbonyl)phenyl]-1H-pyrrolo[2,3-b]pyridin-3-yl}methylene)-1-benzofuran-3(2H)-one]	0.5	–	–
O=C1C(=Cc2cn(CCCN3CCOCC3)c3ncccc23)Oc2cc(O)cc(O)c21 [Compound 7, 4,6-dihydroxy-2-{[1-(3-morpholin-4-ylpropyl)-1H-pyrrolo[2,3-b]pyridin-3-yl]methylene}-1-benzofuran-3(2H)-one]	–	921	> 10000
O=C1C(=Cc2cn(CCCN3CCN(CCO)CC3)c3ncccc23)Oc2c1ccc(O)c2O [Compound 10, 6,7-dihydroxy-2-[(1-{3-[4-(2-hydroxyethyl)piperazin-1-yl]propyl}-1H-pyrrolo[2,3-b]pyridin-3-yl)methylene]-1-benzofuran-3(2H)-one]	–	> 10000	> 10000
CN1CCN(CCCn2cc(C=C3Oc4cc(O)cc(O)c4C3=O)c3cccnc32)CC1 [Compound 6, 4,6-dihydroxy-2-({1-[3-(4-methylpiperazin-1-yl)propyl]-1H-pyrrolo[2,3-b]pyridin-3-yl}methylene)-1-benzofuran-3(2H)-one]	–	5890	> 10000
Cn1cc(C=C2Oc3c(ccc(O)c3O)C2=O)c2cccnc21 [Compound 2, 6,7-dihydroxy-2-[(1-methyl-1H-pyrrolo[2,3-b]pyridin-3-yl)methylene]-1-benzofuran-3(2H)-one]	–	2340	–
Cn1cc(/C=C2\Oc3ccc(NC(=O)Nc4ccc(Cl)nc4)cc3C2=O)c2c(N3CC4CCC(C3)O4)ccnc21 [Compound 299, 1-(6-chloropyridin-3-yl)-3-[(2Z)-2-{[1-methyl-4-(8-oxa-3-azabicyclo[3.2.1]oct-3-yl)-1H-pyrrolo[2,3-b]pyridin-3-yl]methylidene}-3-oxo-2,3-dihydro-1-benzofuran-5-yl]urea]	69	–	–
Cn1cc(/C=C2\Oc3ccc(NC(=O)NC4CCCCC4)cc3C2=O)c2c(N3CC4CCC(C3)O4)ccnc21 [Compound 236, 1-cyclohexyl-3-[(2Z)-2-{[1-methyl-4-(8-oxa-3-azabicyclo[3.2.1]oct-3-yl)-1H-pyrrolo[2,3-b]pyridin-3-yl]methylidene}-3-oxo-2,3-dihydro-1-benzofuran-5-yl]urea]	–	1470	2970
CN(C)C(=O)CN(C)C(=O)C1CCN(c2ccnc3c2c(C=C2Oc4ccc(NC(=O)Nc5cccnc5)cc4C2=O)cn3C)CC1 [Compound 201, N-[2-(dimethylamino)-2-oxoethyl]-N-methyl-1-[1-methyl-3-({3-oxo-5-[(pyridin-3-ylcarbamoyl)amino]-1-benzofuran-2(3H)-ylidene}methyl)-1H-pyrrolo[2,3-b]pyridin-4-yl]piperidine-4-carboxamide]	7.7	–	–
Cn1cc(/C=C2\Oc3cc(O)cc(O)c3C2=O)c2c(-c3ccc(OC(F)(F)F)cc3)ccnc21 [Compound 15, (2Z)-4,6-dihydroxy-2-({1-methyl-4-[4-(trifluoromethoxy)phenyl]-1H-pyrrolo[2,3-b]pyridin-3-yl}methylene)-1-benzofuran-3(2H)-one]	1	–	–
Cn1cc(/C=C2\Oc3cccc(O)c3C2=O)c2c(-c3ccc(C(=O)NCCO)cc3)ccnc21 [Compound 182, N-(2-hydroxyethyl)-4-{3-[(Z)-(4-hydroxy-3-oxo-1-benzofuran-2(3H)-ylidene)methyl]-1-methyl-1H-pyrrolo[2,3-b]pyridin-4-yl}benzamide]	1.6	–	–

Other lines, results leading:

IC50 (mTOR) [nM]	IC50 (PI3Kα) [nM]	IC50 (PI3Kγ) [nM]	Compound
0.7	13	321	Cn1cc(/C=C2\Oc3cc(O)cc(O)c3C2=O)c2c(-c3cccc(C(=O)Nc4ccc(F)cc4)c3)ccnc21 [Compound 97, 3-{3-[(Z)-(4,6-dihydroxy-3-oxo-1-benzofuran-2(3H)-ylidene)methyl]-1-methyl-1H-pyrrolo[2,3-b]pyridin-4-yl}-N-(4-fluorophenyl)benzamide]
8.1	107	829	Cn1cc(/C=C2\Oc3cccc(O)c3C2=O)c2c(-c3ccc(-c4ccco4)cc3)ccnc21 [Compound 127, (2Z)-2-({4-[4-(2-furyl)phenyl]-1-methyl-1H-pyrrolo[2,3-b]pyridin-3-yl}methylene)-4-hydroxy-1-benzofuran-3(2H)-one]
0.3	7	36	Cn1cc(/C=C2\Oc3cc(O)cc(O)c3C2=O)c2c(-c3ccc(NS(C)(=O)=O)cc3)ccnc21 [Compound 36, N-(4-{3-[(Z)-(4,6-dihydroxy-3-oxo-1-benzofuran-2(3H)-ylidene)methyl]-1-methyl-1H-pyrrolo[2,3-b]pyridin-4-yl}phenyl)methanesulfonamide]
0.2	6	38	Cn1cc(/C=C2\Oc3cc(O)cc(O)c3C2=O)c2c(-c3ccc(C(N)=O)cc3)ccnc21 [Compound 34, 4-{3-[(Z)-(4,6-dihydroxy-3-oxo-1-benzofuran-2(3H)-ylidene)methyl]-1-methyl-1H-pyrrolo[2,3-b]pyridin-4-yl}benzamide]
39	503	638	CN(C)C(=O)C1CCN(c2ccnc3c2c(/C=C2\Oc4ccc(NC(=O)Nc5ccc(OC6CCOCC6)nc5)cc4C2=O)cn3C)CC1 [Compound 267, N,N-dimethyl-1-(1-methyl-3-{(Z)-[3-oxo-5-({[6-(tetrahydro-2H-pyran-4-yloxy)pyridin-3-yl]carbamoyl}amino)-1-benzofuran-2(3H)-ylidene]methyl}-1H-pyrrolo[2,3-b]pyridin-4-yl)piperidine-4-carboxamide]
16.5	43	156	COc1ccc(-c2ccnc3c2c(/C=C2\Oc4cccc(O)c4C2=O)cn3C)cc1S(=O)(=O)N1CCCCC1 [Compound 123, (2Z)-4-hydroxy-2-({4-[4-methoxy-3-(piperidin-1-ylsulfonyl)phenyl]-1-methyl-1H-pyrrolo[2,3-b]pyridin-3-yl}methylene)-1-benzofuran-3(2H)-one]
22.5	921	1140	C#CCN(C)C(=O)C1CCN(c2ccnc3c2c(/C=C2\Oc4ccc(NC(=O)Nc5cccnc5)cc4C2=O)cn3C)CC1 [Compound 226, N-methyl-1-{1-methyl-3-[(Z)-{3-oxo-5-[(pyridin-3-ylcarbamoyl)amino]-1-benzofuran-2(3H)-ylidene}methyl]-1H-pyrrolo[2,3-b]pyridin-4-yl}-N-prop-2-yn-1-ylpiperidine-4-carboxamide]
–	676	8500	COc1ccc2c(n1)c(C=C1Oc3c(ccc(O)c3O)C1=O)cn2C [Compound 4, 6,7-dihydroxy-2-[(5-methoxy-1-methyl-1H-pyrrolo[3,2-b]pyridin-3-yl)methylene]-1-benzofuran-3(2H)-one]
1200	525	–	O=C1C(=Cc2c[nH]c3ncccc23)Oc2cc(O)cc(O)c21 [Compound 11, 4,6-dihydroxy-2-(1H-pyrrolo[2,3-b]pyridin-3-ylmethylene)-1-benzofuran-3(2H)-one]
–	203	9000	CN1CCN(CCCn2cc(C=C3Oc4c(ccc(O)c4O)C3=O)c3cccnc32)CC1 [Compound 8, 6,7-dihydroxy-2-({1-[3-(4-methylpiperazin-1-yl)propyl]-1H-pyrrolo[2,3-b]pyridin-3-yl}methylene)-1-benzofuran-3(2H)-one]
–	44	200	CN1CCN(c2ccnc3c2c(/C=C2\Oc4cc(O)cc(O)c4C2=O)cn3C)CC1 [Compound 44, (2Z)-4,6-dihydroxy-2-{[1-methyl-4-(4-methylpiperazin-1-yl)-1H-pyrrolo[2,3-b]pyridin-3-yl]methylene}-1-benzofuran-3(2H)-one]
–	135	9170	O=C1C(=Cc2cn(CCCN3CCOCC3)c3ncccc23)Oc2c1ccc(O)c2O [Compound 9, 6,7-dihydroxy-2-{[1-(3-morpholin-4-ylpropyl)-1H-pyrrolo[2,3-b]pyridin-3-yl]methylene}-1-benzofuran-3(2H)-one]
